Results taken from patent US8338380B2, “Use of the peptide RFMWMR as a therapeutic agent” (priority 2007, dated 2012).

Key:
[1] = system: HIV-1IIIB; assay: HIV-1 antiviral assay (CPE reduction, MTS); type: cell-based; conditions: peptide 10 micrograms per ml, 6 days post-infection
[2] = system: Streptococcus pneumoniae; assay: Streptococcus pneumoniae assay; type: cell-based; conditions: peptide 10 micrograms per ml, macroscopic growth, read visually
[3] = system: Interferon-γ (IFN-γ); assay: Th1/Th2 cytokine profiling assay: IFN-γ; type: cell-based; conditions: Ovalbumin-restimulated spleen cells of immunized Balb/c mice; 10 micrograms per ml; 72 hours
[4] = system: hepatitis B virus (HBV) ayw strain; assay: HBV experimental assay system (secreted HBV DNA, TaqMan PCR); type: cell-based; conditions: HepG2-2.2.15 cells; peptide 10 micrograms per ml; six days; HBV DNA in supernatant
Experimental: HepG2-2.2.15 is a stable cell line containing the hepatitis B virus (HBV) ayw strain genome (ATCC Cat. No. CRL-11997). Antiviral compounds blocking any late step of viral replication such as transcription, translation, pregenome encapsidation, reverse transcription, particle assembly and release can be identified and characterized using this cell line.
HepG2-2.2.15 cells were plated in 96-well microtiter plates. After 16-24 hours the confluent monolayer of HepG2-2.2.15 cells was washed and the medium was replaced with complete medium containing test peptide—10 micrograms per ml—in duplicate. […] Three days later the culture medium was replaced with fresh medium containing the peptide. Six days following the initial administration of the peptide, the cell culture supernatants was collected, treated with pronase and DNAse and then used in a real-time quantitative TaqMan PCR assay. The PCR-amplified HBV DNA was detected in real-time by monitoring increases in fluorescence signals that result from the exonucleolytic degradation of a quenched fluorescence probe molecule that hybridizes to the amplified HBV DNA. For each PCR amplification, a standard curve was simultaneously generated using dilutions of purified HBV DNA. Antiviral activity was calculated from the reduction in HBV DNA levels (% virus control). […]

[5] = system: MRSA; assay: Methicillin resistant Staphylococcus aureus (MRSA) assay; type: cell-based; conditions: peptide 10 micrograms per ml, macroscopic growth, read visually
[6] = system: Interleukin-2 (IL-2); assay: Th1/Th2 cytokine profiling assay: IL-2; type: cell-based; conditions: Ovalbumin-restimulated spleen cells of immunized Balb/c mice; 10 micrograms per ml; 72 hours
[7] = system: Primary Human endothelial cells (HUVEC); assay: Endothelial cell migration assay; type: cell-based; conditions: 10 micrograms per ml, 22 hours
[8] = system: Interleukin-4 (IL-4); assay: Th1/Th2 cytokine profiling assay: IL-4; type: cell-based; conditions: Ovalbumin-restimulated spleen cells of immunized Balb/c mice; 10 micrograms per ml; 72 hours
[9] = Cytotoxicity in CEM-SS cells (MTS) of the HIV-1 experiments; conditions: human
[10] = system: Human Peripheral Blood Mononuclear Cells (PBMC); assay: B cell proliferation assay (SAC plus Interleukin-2, 3H-thymidine); type: cell-based; conditions: 10 micrograms per ml, 3 days, 3H-thymidine incorporation
[11] = system: Human Peripheral Blood Mononuclear Cells (PBMC); assay: T cell proliferation assay (PHA, 3H-thymidine); type: cell-based; conditions: 10 micrograms per ml, 3 days, 3H-thymidine incorporation
[12] = system: HCMV strain AD169; assay: HCMV plaque reduction assay in MRC-5 cells; conditions: HCMV AD169 in MRC-5 cells; peptide 10 micrograms per ml; 7-10 days
[13] = system: RAW 264.7 cells; assay: Phagocytosis assay (Fluorescein-labeled Escherichia coli); type: cell-based, Mouse; conditions: 10 micrograms per ml, 30 min preincubation, 60 min ingestion, flow cytometry
[14] = system: Pseudomonas aeruginosa; assay: Pseudomonas aeruginosa assay; type: cell-based; conditions: peptide 10 micrograms per ml, macroscopic growth, read visually
[15] = system: A549 cells; assay: Propidium iodide cell cycle assay; type: cell-based, Human; conditions: 10 micrograms per ml, 24 hours, FACS
[16] = system: A549 cells; assay: Apoptosis prevention assay (C2 ceramide, Annexin-5); type: cell-based, Human; conditions: A549 cells pretreated 30 min with 10 micrograms per ml, then C2 ceramide
[17] = system: Tumor Necrosis Factor-α (TNF-α); assay: Th1/Th2 cytokine profiling assay: TNF-α; type: cell-based; conditions: Ovalbumin-restimulated spleen cells of immunized Balb/c mice; 10 micrograms per ml; 72 hours
[18] = Cytotoxicity in MRC-5 cells (CellTiter 96); conditions: human, MRC-5 cells (embryonal lung fibroblasts)
[19] = system: HUVEC; assay: Endothelial tube formation assay; type: cell-based, Human; conditions: 10 micrograms per ml, 20 hours, average tubule length
Source text: Positive control was vehicle only.

[20] = system: A549 cells; assay: Apoptosis induction assay (Annexin-5); type: cell-based, Human; conditions: apoptosis in A549 cells, 10 micrograms per ml, 24 hours
[21] = system: Interleukin-5 (IL-5); assay: Th1/Th2 cytokine profiling assay: IL-5; type: cell-based; conditions: Ovalbumin-restimulated spleen cells of immunized Balb/c mice; 10 micrograms per ml; 72 hours
[22] = Cytotoxicity in HepG2-2.2.15 cells (dye uptake assay); type: cell-based; conditions: human, peptide 10 micrograms per ml, read-out: % Cell Viability
[23] = system: TNF alpha; assay: TNF alpha production assay in LPS-stimulated macrophages (ELISA); type: cell-based, human; conditions: PBMC-derived macrophages, 10 micrograms per ml 30 min before lipopolysaccharide 200 ng/ml, overnight
Source text: Not stimulated macrophages served as negative background control.

Ac-RFMWMR-NH2 [Ac-Arg-Phe-Met-Trp-Met-Arg-NH2]
% CPE reduction in HIV-1 infected CEM-SS cells [1]: 0.0% | % inhibition [2]: 0.0% | INFγ spleen cells; TH1 response (% of control) [3]: 218.6 % of control | % inhibition of HBV replication in HEP G2 cells [4]: 46.8% | % inhibition [5]: 0.0% | IL-2 spleen cells (% of control) [6]: 156.5 % of control | % inhibition of migration [7]: −15% | IL-4 spleen cells; TH2 response (% of control) [8]: 156.2 % of control | viability at 10 micrograms per ml [9]: 100% | % of SAC/IL2 induced control [10]: 106.3% | % of PHA induced control [11]: 109.1% | % plaque reduction [12]: 0.0% | % of control phagocytosis [13]: 105.9% | % inhibition [14]: 0.0% | Cell cycle analysis G0/G1 [15]: 59.2 | Cell cycle analysis G2/M [15]: 8.2 | Cell cycle analysis S [15]: 32.7 | % prevention of ceramide induced apoptosis [16]: 0.0% | TNF-a spleen cells; TH1 response (% of control) [17]: 118.8 % of control | viability at 144 h [18]: 84% | % inhibition of tube formation [19]: 23% | % of induction [20]: 1.2% | IL-5 spleen cells; TH2 response (% of control) [21]: 93.8 % of control | viability at 144 h, 10 micrograms per ml [22]: 100% | % of LPS induction [23]: 149.8%
